How the values were obtained:
MEFs [1] = test: Counting of spontaneously beating cells in infected MEFs; type: cell-based, mouse; conditions: for spontaneously beating cells induced by GHMT2m in the presence of inhibitor: GHMT2m-MEFs treated 7 days, counted at day 9, Thiazovivin 2.5 μM, SR-3677 5 μM, GW788388 3 μM, LY-364947 1.5 μM, SD-208 1 μM
Experimental: (§1) Fibroblasts were plated on tissue culture dishes pre-coated with SureCoat (Cellutron) at a density of ˜40 cells/mm^2 before transduction. The fibroblast growth medium was replaced with freshly made viral mixture containing polybrene (Sigma). Twenty-four hours later, fibroblasts were infected again with viral mixture containing polybrene. Twenty fours later, the viral medium was replaced with induction medium, composed of DMEM/199 (4:1) (Gibco), 10% FBS (Gemini), 5% horse serum(Gemini), antibiotics (Gibco), 1× non-essential amino acids (Gibco), 1× essential amino acids (Gibco), 1× B-27 (Gibco), 1× insulin-selenium-transferin (Gibco), 1× vitamin mixture (Gibco), and 1× sodium pyruvate (Gibco). Medium was changed every two-three days until cells were examined.
Cells in 60 mm dishes were examined under an EVOS® FL Color imaging system (Life Technologies) at 25° C. Beating cells were counted at a field with an area of 0.89 mm^2. Ten to fifteen fields in each dish were randomly chosen.

rats following MI = conditions: cited from earlier work
iCMs = test: Spontaneous calcium transients in Fura-2 AM-loaded iCMs; type: cell-based, mouse; design: dose or concentration left out as unconfirmed; conditions: iCMs on days 10-12, isoproterenol
Source text: To determine whether iCMs were developing functional excitation-contraction (EC) coupling, we imaged spontaneous calcium transients from Fura-2 AM-loaded iCMs. Spontaneous calcium transients were detected in spontaneously beating cells on days 10-12 (FIGS. 68-71). […] To determine whether iCMs are able to appropriately respond to hormone stimulation, a critical function of normal cardiomyocytes, we measured calcium transients in response to the b-adrenergic agonist isoproterenol (Iso).

MEFs [2] = test: Pro-fibrotic marker expression in infected MEFs (qPCR, Western blot, αSMA stress fiber immunostaining); type: cell-based, mouse
Experimental: (§2) Cells were harvested in TRizol reagent (Ambion) for RNA isolation. RNA was extracted with the RNeasy® Plus Universal Mini Kit (Qiagen). RT-PCR was performed using the Superscript III first-strand synthesis system (Invitrogen). qPCR was performed using the SYBR® Green PCR master mix (Applied Biosystems) or StepOne™ Real-Time PCR Systems (Applied Biosystems). Primers are listed in Supplementary Table 1. Ryr2 (Mm00465877_m1) and Myh7 (Mm01319006_91) are Taqman probes (Life technologies).
Samples were placed on ice and washed with ice-cold DPBS (Gibco) twice, then ice-cold lysis buffer (150 mM NaCl, 50 mM Tris-Cl pH7.4, 1 mM EDTA, 1% Triton, Complete mini tablet (Roche), 1 mM PMSF freshly added before use) was added to the cells. Cells were scraped and transferred to a pre-chilled 1.5 Eppendorf tube and frozen in liquid N2. Before used, the lysate was thawed on ice. The lysate was passed carefully through a 25 g needle for 5 times and then centrifuge at 14,000 rpm for 15 minutes at 4° C. The supernatant was transferred to a new 1.5 ml tube. The protein concentration was measured and 20 ug of lysate for each sample was loaded to SDSPAGE. Proteins were then transferred to PVDF. The PDVF membrane was blocked in 2.5% BSA in 1×TBST for 30 mins at room temperature (RT). The primary antibody was added in blocking buffer for 60 mins at RT. Wash in 1×TBST (20 mM Tris-Cl, pH7.4; 150 mM NaCl; 0.1% Tween20) three times at RT, each for 15 mins. The Secondary antibody was added in blocking buffer for 45 mins at RT. The membrane was washed in 1 XTBST for 15 mins, 1×TBST for 5 mins, then TBS (10 mM Tris-Cl pH8, 150 mM NaCl) for 5 mins. The membrane was resolved with Super Signal® West Pico (34080) or Femto (34095) substrate (Thermo Scientfic). The primary antibodies include: Snail (Cell Signaling, 3879S, 1:1000), Slug (Cell Signaling, 9585S, 1:1000), P-Smad2 (Cell Signaling, 23108P, 1:1000), Smad2 (Cell Signaling, 5339, 1:1000), αSMA (Santa Cruz, SC-32251, 1:10000), cTn1 (Phospho Solutions, 2010-TNI, 1:1000), cTnT (Sigma, T6277, 1:1000), and GAPDH (Ambion, AM4300). The secondary antibodies include: Goat Anti-Mouse IgG (H+L) (Southern Biotech, 1031-05, 1:2000). Goat Anti-Rabbit IgG (Life Technologies, 65-6120, 1:2000). For separation of α- and β-myosin heavy chain, samples were run by modified 6% SDS-PAGE (separating acrylamide/bis ratio 1:100; resolving gel buffer pH 9.0; running gel buffer pH 8.2; β-mercaptoethanol 600 μl/l inner gel buffer). Gels were run overnight at 4° C. and stained with BioSafe Coomassie Blue protein stain.
(§3) Cells were fixed in 2% PFA for 15 min on ice then washed with DPBS (Gibco) three times at RT. The cells were permeabilized in 0.5% Triton X-100 (made in PBS) for 20 min at RT. After washing the cells with DPBS (Gibco), cells were incubated with the primary antibody against α-actinin (Sigma A7811, 1:300), Connexin 43 (Sigma, C6219, 1:500), Troponin T (Thermo Scientific MS-245-P, 1:500), α-SMA (Santa Cruz Biotechnology, SC-32251, 1:800), Myl2 (Proteintech, 10906-1-AP, 1:200), or Myl7 (Proteintech, 17283-1-AP, 1:200) in 10% FBS(Gemini) in DPBS for 1 hour at RT. Cells were wash with DPBS three times, 5 min each. Cell were incubated with the secondary antibody (Alexa Fluor 555 Molecular Probes A21422, 1:1000) and Hoechest (Molecular Probes 33342, 1:5000) for 30 mins at RT.

MEFs [3] = test: qPCR of cardiac genes in reprogramming MEFs; type: cell-based, mouse
Experimental: as §2

[4] = test system: mice following ischemia/reperfusion injury; conditions: cited from earlier work
MEFs [5] = test: Immunocytochemistry for cTnT and α-actinin in infected MEFs; type: cell-based, mouse
Experimental: as §1, §3

MEFs [6] = test: Intracellular staining for flow cytometry (cTnT, Myc) in retrovirus-infected MEFs; type: cell-based, mouse; conditions: GHMT-infected MEFs, day 7; alone or treated with TGF-β1 (10 ng/ml) or A83-01 (0.5 μM, day 3 to day 7)
Experimental: C57BL6 pregnant mice at E13 were order from Charles River's laboratory. Embryos at E14.5 were harvested and their internal organs and head were removed. The body below the liver was minced using blade to fine pieces. Minced embryos were incubated with 2 ml of 0.25% trypsinIl mM EDTA, Phenol Red (Gibco) for 40 mins at 37° C. with 5% CO2. Cells were suspended in 25 ml of growth medium (DMEM/Hi glucose (Hyclone) 10% FBS (Gemini), 1.1% Penicillin-Streptomycin (Gibco) and 1.1% GlutaMAX supplement (Gibco)) and then plated on a 15 cm dish. In 24 hours, the media was aspirated and new 25 ml of growth medium was added. In 72 hours, MEFs were harvested and stored for future use.
as §1
Adherent fibroblasts were washed with DPBS (Gibco). Cells were detached from culture dish by treatment with 0.25% Trypsin/EDTA (Gibco) for 3 min at 37° C. Cells were then washed with 4 ml of 5% FBS (Gemini) in DPBS filtered through a cell strainer and centrifuge at 1200 rpm×6 mins. Cells were washed with 500 ul of 1% BSA in DPBS. Cells were fixed with BD Cytofix/Cytoperm™ solution in 0.2 ml/1 million cells in 1.5 ml eppendorf tube for 20 min on ice. Cells were washed with 1 ml of BD perm/wash buffer and Centrifuged for 6 min at 1200 rpm. The supernatant was discarded; cells were washed again with 1 ml of BD Perm/wash buffer and left overnight at 4° C. The next day, Cells were centrifuged for 6 min at 1200 rpm, the supernatant discarded and 100 μl of Blocking buffer made with 5% goat, donkey serum (Sigma: G9023 and D9663) in Perm/wash buffer was added to the cells and incubated for 30 min at RT. A primary antibody: Mouse Troponin T (cTnT) antibody (Thermo Scientific, ms-295-p, 1:200), mouse anti-C-Myc antibody (BD Pharmingen, 551102, 1:200) in 100 μl BD Perm/Wash buffer was added to the cells and incubated for 1 hr at RT. One ml cold BD Perm/wash buffer was added to the cells and centrifuged for 6 min at 1200 rpm. […] Cells were re-suspended in 300 ul of 1% BSA/DPBS and then analyzed using FACS Caliber (BD Sciences) and FlowJo software.

[7] = GFP-, GHMT- and GHMT2m-infected cultures, day 7

O=C(NC1CCOCC1)c1ccc(-c2cc(-c3c[nH]nc3-c3ccccn3)ccn2)cc1 [GW788388]
spontaneously beating cells induced by GHMT2m in the presence of inhibitor (MEFs [1]): enhanced cardiac reprogramming by inducing more spontaneously beating cells | TGF-β activity, cardiac fibrosis, ventricular remodeling, systolic dysfunction (rats following MI): significantly decreased TGF-β activity, cardiac fibrosis and ventricular remodeling with attenuation of systolic dysfunction

CC(C)NCC(O)c1ccc(O)c(O)c1 (stereo not shown) [Iso, isoproterenol]
frequency of cell contraction and spontaneous calcium transients (iCMs): significantly increased

c1ccc(-c2[nH]ncc2-c2ccnc3ccccc23)nc1 [LY-364947]
spontaneously beating cells induced by GHMT2m in the presence of inhibitor (MEFs [1]): enhanced cardiac reprogramming by inducing more spontaneously beating cells

Fc1ccc(Cl)cc1-c1nc(Nc2ccncc2)c2nccnc2n1 [SD-208]
spontaneously beating cells induced by GHMT2m in the presence of inhibitor (MEFs [1]): enhanced cardiac reprogramming by inducing more spontaneously beating cells

CN(C)CCOc1cc(-c2cn[nH]c2)ccc1NC(=O)C1COc2ccccc2O1 (stereo not shown) [SR-3677]
spontaneously beating cells induced by GHMT2m in the presence of inhibitor (MEFs [1]): enhanced cardiac reprogramming and promoted formation of spontaneously beating cells

O=C(NCc1ccccc1)c1csc(Nc2ccncn2)n1 [Thiazovivin]
spontaneously beating cells induced by GHMT2m in the presence of inhibitor (MEFs [1]): enhanced cardiac reprogramming and promoted formation of spontaneously beating cells

C[C@@H](N)[C@H]1CC[C@H](C(=O)Nc2ccncc2)CC1 [Y-27632]
Snail and Slug expression (MEFs [2]; [7]): did not change | expression of Fn-EDA and αSMA (MEFs [2]; [7]): decreased | inhibition of expression of pro-fibrotic markers, comparison of inhibitors (MEFs [2]; reprogramming MEFs): inhibited expression of pro-fibrotic markers less efficiently than A83-01 | beating cell population (MEFs [1]; GHMT2m cultures of MEFs, by day 12, without or with Y-27632 (30 μM)): ~30% | increase of the number of beating cells (MEFs [1]; GHMT-infected MEFs, Y-27632 30 μM, by 4 weeks): 7 fold | time by which cells started to beat (MEFs [1]; MEFs, GHMT2m alone, or GHMT-infected cultures treated with Y-27632 (30 μM) or A83-01 (0.5 μM)): ≤ 12 days | cardiomyocyte-specific gene expression (MEFs [3]; reprogramming MEFs treated with Y-27632 for 5 days, day 7): enhanced | infarct size and remodeling [4]: decreased infarct size and remodeling | assembly of myocyte sarcomeres (MEFs [5]; infected MEFs treated with Y-27632 (30 μM), day 14): enhanced

TGF-β1: Recombinant Mouse TGF-beta 1 (R&D Systems 7666-MB-005), pro-fibrotic stimulus
profibrotic gene Col1a1 expression (MEFs [2]; GHMT2m-fibroblasts treated with TGF-β1): enhanced | amount of phospho-Smad2, expression of Fn-EDA and Col1a1, formation of αSMA stress fibers (MEFs [2]; GHMT-infected cultures at day 7, TGF-β1 10 ng/ml, compared to non-treated): increased | decrease of beating cells (MEFs [1]; GHMT2m-infected MEFs treated with TGF-β1, by one month): 100 fold | effect on beating cells (MEFs [1]; GHMT-infected MEFs treated with TGF-β1, by one month): completely abolished | expression of other cardiomyocyte markers, including α-actinin, Myh6 and Actc1 (MEFs [3]; GHMT2m-cultures treated with TGF-β1): significantly down-regulated | cardiac gene expression (MEFs [3]; GHMT-infected cultures treated with TGF-β1 for 4 days): significantly reduced | cTnThigh fraction (MEFs [6]): approximately 19% | fraction of cTnT+ cells (MEFs [5]; GHMT2m-cultures treated with TGF-β1, day 7 and day 14): did not significantly decrease | cTnT+ and α-actinin+ populations (MEFs [5]; GHMT-infected MEFs treated with TGF-β1, day 14): significantly reduced

Reference: patent publication US10519423B1, “High efficiency reprogramming of fibroblasts into cardiomyocytes” (The Regents of the University of Colorado, a body corporate, priority 2015, dated 2019)
